We go through 100 molecules from ChEMBL document CHEMBL3507680, “University of Dundee, Gates Library screen for HepG2 cell viability”.

This data set in a line: Human HepG2 cell viability assay in 384 well format. The data set is classed as toxicity, cell-based. More on the design: dose 125 nL, time 70.5 hour; concentration not given beside the values. Conditions: HepG2 cells, read-out: Inhibition.
As for `Cc1cnc(CN(C)C2CCN(Cc3cnc(C)s3)C2)o1` (stereo not given), the cytotoxicity at 70.5 h was -8.23%.

As for `O=C(NCCC(O)c1ccccc1)c1ccco1` (stereo not given), the cytotoxicity at 70.5 h was -8.79%.

Take `Cc1ccc(CN2CCCC3(CCC(=O)N3)CC2)s1` (stereo not given): the cytotoxicity at 70.5 h is -7.87%.

In the case of `Cc1nc(N2CCCC2)nc2c1CCN(C(=O)NC(C)C)CC2`, the cytotoxicity at 70.5 h worked out at 30.9%.

With `CCc1nc(C)c(C(=O)N2CCNCC2C(=O)Nc2ccc(C)nc2)o1` (stereo not given), the cytotoxicity at 70.5 h is -3.52%.

Take `Cn1cc(CN2C[C@@H](F)[C@@H](OCc3nc4cnccc4[nH]3)C2)cn1`: the cytotoxicity at 70.5 h was -1.11%.

As to `CCCNC(=O)c1nc2c(o1)CN(c1ncccn1)C2`, the cytotoxicity at 70.5 h was -2.16%.

`O=C(NCc1ccccn1)[C@@]12CCO[C@@H]1CCN(Cc1ccccn1)C2`: the cytotoxicity at 70.5 h is -5.8%.

Regarding `CC(C)CS(=O)(=O)N1CCC2(CC1)CCn1c(-c3cnn(C)c3)cnc12`, the cytotoxicity at 70.5 h came to 32.9%.

As for `CC(NCc1cnn(C)c1)c1ccc(OCc2nccn2C)cc1` (stereo not given), the cytotoxicity at 70.5 h was -2.06%.

As for `Cc1cc(N(C)C)nc(C2CCNC2)n1` (stereo not given), the cytotoxicity at 70.5 h turned out to be 45.3%.

Consider `CS(=O)(=O)c1ccc(C(=O)NCCNc2ncccn2)cc1`, for which the cytotoxicity at 70.5 h was -12.6%.

Regarding `Cc1cccc(C)c1NC(=O)c1cccc(N(C)S(C)(=O)=O)c1C`, the cytotoxicity at 70.5 h was -14.1%.

Regarding `CC(=O)N1C[C@H](NC(=O)c2cscn2)[C@@H]2OCCC[C@@H]21`, the cytotoxicity at 70.5 h is -16.1%.

Regarding `CCc1ccc(NC(C(N)=O)c2ccc(F)cc2)cc1` (stereo not given), the cytotoxicity at 70.5 h is -5.1%.

Take `O=C(NCC1CC1)[C@H]1C[C@H]2OCC[C@H]2N(Cc2ccoc2)C1`: the cytotoxicity at 70.5 h was 22.9%.

As for `O=C(c1cc[nH]n1)N(Cc1ccccc1)CC1CCC1`, the cytotoxicity at 70.5 h was -9.65%.

As to `CN(C)C1CN(C(=O)Nc2cccc(OC(F)F)c2)C1`, the cytotoxicity at 70.5 h was 17.6%.

On to `CN(Cc1ccncc1)C1CC2(CCN(Cc3ccccn3)CC2)C1`, for which the cytotoxicity at 70.5 h is -6.76%.

Regarding `CC(C)n1nnnc1-c1ccc(NC(=O)N(C)CCN(C)C)cc1F`, the cytotoxicity at 70.5 h was -7.88%.

Take `Cc1nc(C)n(CC2CN(c3ncnc4[nH]ccc34)CCO2)n1` (stereo not given): the cytotoxicity at 70.5 h worked out at 1.75%.

As to `Cc1nccn1CCC1CCCCN1Cc1ccc(O)cc1Cl` (stereo not given), the cytotoxicity at 70.5 h came to 15.6%.

As for `CC(=O)N1CCCN(C(C)c2ccc(Br)cc2)CC1` (stereo not given), the cytotoxicity at 70.5 h was 17.2%.

Turning to `COCCN1CCN(Cc2c(C)noc2C)Cc2cccnc21`, the cytotoxicity at 70.5 h is -4.72%.

Regarding `CCc1nccn1C1CCCN(C(=O)c2cnn3cccnc23)C1` (stereo not given), the cytotoxicity at 70.5 h was found to be 27.7%.

Consider `COc1ccccc1OC1CN(C(=O)C2CNCC(=O)N2)C1` (stereo not given), for which the cytotoxicity at 70.5 h is -9.64%.

For the molecule `CC(C)n1cnnc1CN1CCC2(CCCN(C3CCCCC3)C2=O)C1` (stereo not given), the cytotoxicity at 70.5 h is -2.59%.

In the case of `O=C(CS(=O)(=O)c1ccc(Cl)cc1)NC1CCCc2ccccc21` (stereo not given), the cytotoxicity at 70.5 h was 1.89%.

For `Cc1cc2nc(CN(C)c3ccc(Cl)cc3)cc(=O)n2o1`, the cytotoxicity at 70.5 h came to 22%.

With `Cn1cc(C(O)CNC(=O)c2sccc2OC(F)F)cn1` (stereo not given), the cytotoxicity at 70.5 h is -4.33%.

Consider `CC(C)COC(C)C(=O)N1CCCC1` (stereo not given), for which the cytotoxicity at 70.5 h is -7.16%.

On to `Cc1cncc(C(=O)N2CC[C@@]3(C[C@H](NS(C)(=O)=O)CCO3)C2)c1`, for which the cytotoxicity at 70.5 h was -7.39%.

On to `Cc1cccc(NS(=O)(=O)c2cc(C(=O)O)oc2C)c1`, for which the cytotoxicity at 70.5 h was -0.669%.

Take `Cc1nc(C)c(C(C)NC(=O)NCCNc2cccc(F)c2C#N)s1` (stereo not given): the cytotoxicity at 70.5 h is -8.61%.

Regarding `Cc1nc(-c2cn(CCN)nn2)n(-c2ccc(C(F)(F)F)cc2)n1`, the cytotoxicity at 70.5 h came out at 5.79%.

With `O=C(Nc1cccnc1-n1cc(Br)cn1)C1CCCC1`, the cytotoxicity at 70.5 h is -25.7%.

In the case of `Cc1ccsc1-c1nccn1CCS(=O)(=O)N1CCCC1`, the cytotoxicity at 70.5 h was found to be 8.18%.

For the molecule `COc1cccc(F)c1C(=O)N1C[C@@H](CN(C)CCO)[C@@H](CO)C1`, the cytotoxicity at 70.5 h is -8.49%.

In the case of `CCc1oc(C(=O)NC(C)Cc2cnccn2)cc1CN1CCCC1` (stereo not given), the cytotoxicity at 70.5 h was -14.2%.

For the molecule `CC(=O)N(C)CC(=O)NCC1(c2cccc(C)c2)CCCC1`, the cytotoxicity at 70.5 h was 1.29%.

For the molecule `COc1ccc(CN(C)C2CCN(S(C)(=O)=O)CC2)c2cccnc12`, the cytotoxicity at 70.5 h is -1.77%.

As for `C[C@H](NC(=O)Cc1csc(-c2cccc(Cl)c2)n1)C(=O)O`, the cytotoxicity at 70.5 h is 19.3%.

In the case of `Cc1cccc(NC2CCN(C(=O)Nc3ccccn3)CC2)n1`, the cytotoxicity at 70.5 h is 2.1%.

Turning to `Cc1noc2ncc(S(=O)(=O)Nc3cc(C(C)(C)C)n[nH]3)cc12`, the cytotoxicity at 70.5 h is -4.7%.

As for `Cc1ccc(CN2CC(O)CN(C(=O)C3CC3)CC2=O)cc1` (stereo not given), the cytotoxicity at 70.5 h is -5.26%.

Consider `CC(C)N(C(=O)c1csc(-c2ccoc2)n1)C1CCOCC1`, for which the cytotoxicity at 70.5 h is -10.2%.

As for `COCC1c2nnn(C)c2CCN1C(=O)Cc1ccc2c(c1)OCO2` (stereo not given), the cytotoxicity at 70.5 h worked out at 9.52%.

Take `CN(C)CCn1c(=O)n(C)c(=O)c2ccccc21`: the cytotoxicity at 70.5 h was found to be 18.7%.

As to `CCN(C(=O)NCc1ccc(C)cc1OC)C(C)c1cccnc1` (stereo not given), the cytotoxicity at 70.5 h was -6.56%.

Regarding `Cc1ccc(CN(CCCN(C)C)Cc2cnc(N(C)C)nc2)o1`, the cytotoxicity at 70.5 h was determined as 6.47%.

Take `CSc1cccc(NC(=O)Nc2c(O)oc3ccccc3c2=O)c1`: the cytotoxicity at 70.5 h was -11.5%.

On to `CC(C)(C)C(=O)NCCNc1cc(N2CCCC2)ncn1`, for which the cytotoxicity at 70.5 h is -8.01%.

Take `CCC(=O)N1CCC(c2nc3c(c(NC)n2)CN(C)CC3)C1` (stereo not given): the cytotoxicity at 70.5 h was -9.93%.

With `CC(=O)NS(=O)(=O)c1ccc(F)c(C(F)(F)F)c1`, the cytotoxicity at 70.5 h was -6.35%.

As to `O=C(Cc1ccccn1)N1CCN(C(=O)c2cccc3[nH]ncc23)CC1`, the cytotoxicity at 70.5 h stood at 1.92%.

In the case of `CN(Cc1ccc([S+](C)[O-])cc1)c1ccc(Br)cn1` (stereo not given), the cytotoxicity at 70.5 h was -0.515%.

Turning to `CCNC(=O)NC(=O)CNc1cc(C#N)ccc1OCC`, the cytotoxicity at 70.5 h is -3.61%.

In the case of `CCn1ccnc1CN1CCC(Oc2ccccc2F)(C(=O)O)CC1`, the cytotoxicity at 70.5 h is -0.995%.

In the case of `Cc1nn(CC(O)CN2CCc3ccccc3C2)c(=O)c2ccccc12` (stereo not given), the cytotoxicity at 70.5 h was -17.4%.

On to `Cc1cnc(N2CCOC3(CCCN(C)C3)C2)nc1` (stereo not given), for which the cytotoxicity at 70.5 h is -10.1%.

With `c1ccc(-c2ncc(CN3CCC4(CCNCC4)C3)cn2)cc1`, the cytotoxicity at 70.5 h was -7.74%.

Consider `COCCN(Cc1noc(-c2ccc(OC)cc2)n1)C1CC1`, for which the cytotoxicity at 70.5 h was -0.841%.

`CNC(=O)c1cn[nH]c1C1CCN(Cc2ccccc2OC)C1` (stereo not given): the cytotoxicity at 70.5 h is -8.12%.

Regarding `CNC(=O)CCN1CCCCCC1c1ccc(C)o1` (stereo not given), the cytotoxicity at 70.5 h was found to be 13.3%.

`CN1CCO[C@@H]2CN(C(=O)c3ccc4[nH]ccc4c3)CC[C@@H]2C1`: the cytotoxicity at 70.5 h is -10.4%.

In the case of `Nc1nc2c(c(N3CCCC(CN4CCCC4=O)C3)n1)CCNCC2` (stereo not given), the cytotoxicity at 70.5 h is -5.58%.

On to `CS(=O)(=O)NC1CCN(C(=O)NCc2cccnc2)CC1`, for which the cytotoxicity at 70.5 h was 2.6%.

Consider `Cc1nn(C)cc1C1CC(=O)Nc2c1cnn2C(C)(C)C` (stereo not given), for which the cytotoxicity at 70.5 h was -4.68%.

Take `CCN1C(=O)[C@]2(CC[C@@H]3CN(C(=O)NCC(C)C)C[C@@H]32)N=C1C`: the cytotoxicity at 70.5 h was -2.72%.

Turning to `Cc1cc(C(=O)N2CCNC(c3ccccc3)C2)c2ccc(F)cc2n1` (stereo not given), the cytotoxicity at 70.5 h was -4.04%.

As for `COc1cccc(CCNC(=O)CCS(=O)(=O)C2CCCC2)c1`, the cytotoxicity at 70.5 h was -12.4%.

`Cc1cc(NC(=O)CNCc2csc(-c3ncccn3)n2)ccc1Cl`: the cytotoxicity at 70.5 h was -14.6%.

On to `Cc1ccc(Oc2ncccc2CNC(=O)C2COC(=O)N2)c(F)c1F` (stereo not given), for which the cytotoxicity at 70.5 h was -11.2%.

As for `O=C(O)c1csc(S(=O)(=O)Nc2c(F)cccc2-n2cccn2)c1`, the cytotoxicity at 70.5 h worked out at 4.64%.

For the molecule `CC(=O)NC1CCCN(C(=O)NCc2ccc(-n3cccn3)cc2)C1` (stereo not given), the cytotoxicity at 70.5 h is -2.4%.

Consider `c1coc(-c2noc(CN3CCCC3Cn3cncn3)n2)c1` (stereo not given), for which the cytotoxicity at 70.5 h is -8.45%.

For the molecule `COCC(=O)N1CCC2(CC1)CCN(Cc1ccccn1)C2=O`, the cytotoxicity at 70.5 h is -0.554%.

As for `COC1COC2(CCN(CC3CC3)CC2)C1` (stereo not given), the cytotoxicity at 70.5 h is -12.5%.

Consider `CCC(CC)CNC(=O)N(C)C(C)c1ccccn1` (stereo not given), for which the cytotoxicity at 70.5 h stood at 12.3%.

On to `Cc1ccc(CN2CCC3(CC2)COCCN3S(C)(=O)=O)o1`, for which the cytotoxicity at 70.5 h is -4.45%.

With `CCC/C=C/c1ccc(CN2CCN(C)CC2)cn1`, the cytotoxicity at 70.5 h worked out at 26%.

For `COc1ccnc(N2CCN(C(=O)COCC(F)(F)F)CC2)n1`, the cytotoxicity at 70.5 h was 13%.

In the case of `Cc1cc(C)n(CC2CCCN2CC(=O)Nc2nnc(C)s2)n1` (stereo not given), the cytotoxicity at 70.5 h turned out to be 0.949%.

With `CCc1cnc(N2CCN(Cc3ccncc3)CC2)s1`, the cytotoxicity at 70.5 h was -3.17%.

`CC(C)c1nsc(N2CCc3sccc3C2)n1`: the cytotoxicity at 70.5 h was -11.5%.

Consider `CC(=O)N1CCCCC1c1cc(CO)[nH]n1` (stereo not given), for which the cytotoxicity at 70.5 h is -18.5%.

With `CCS(=O)(=O)N1CCCC2(COCCN(c3ccccn3)C2)C1` (stereo not given), the cytotoxicity at 70.5 h is -18.6%.

For `CCCN(CC(=O)N(C)C)C(=O)c1ccc(-c2nc(C)cs2)cc1`, the cytotoxicity at 70.5 h is -6.25%.

With `Cc1cc(CN2C[C@@H]3COC[C@]3(CNC(=O)c3ccno3)C2)no1`, the cytotoxicity at 70.5 h was -4.13%.

For `CCN(C)S(=O)(=O)c1ccc(Cl)cc1C#N`, the cytotoxicity at 70.5 h was -7.9%.

Regarding `CC[C@@H](C)[C@@H](N)C(=O)Nc1cccc(-c2cnc(NCCO)nc2)c1`, the cytotoxicity at 70.5 h is -7.48%.

`COc1cccc(CN2CCCC2Cn2nc(C)nc2C)c1` (stereo not given): the cytotoxicity at 70.5 h was determined as 3.03%.

As to `Cc1cc(NCCN)nc2ccccc12`, the cytotoxicity at 70.5 h was -11.3%.

`CCCn1c(C)c(CC(=O)NCC(C)O)c2c1CC(C)(C)CC2=O` (stereo not given): the cytotoxicity at 70.5 h came out at 2.45%.

As for `COc1ccc(NC(=O)N2CCCC2c2ccco2)c(OC)c1` (stereo not given), the cytotoxicity at 70.5 h was found to be 10.8%.

For the molecule `c1cnc(N2C[C@H]3CCN(CC4CC4)C[C@H]3C2)cn1`, the cytotoxicity at 70.5 h stood at 3.82%.

As to `Cc1cccc(CSc2ncc(Br)c(C(=O)O)n2)c1`, the cytotoxicity at 70.5 h was -8.53%.

Consider `c1cnc(N2CCO[C@H]3CN(Cc4csnn4)C[C@H]32)cn1`, for which the cytotoxicity at 70.5 h was -11.1%.

Consider `Cc1ccc(C(=O)NCCS(C)(=O)=O)c(=O)[nH]1`, for which the cytotoxicity at 70.5 h is -5.11%.

For the molecule `Cc1cc(C(=O)N2CCOC[C@H](Oc3cnccn3)C2)c(C(F)(F)F)o1`, the cytotoxicity at 70.5 h was 2.77%.
